Tested on: Histophilus somni
Assay: minimum inhibitory concentration (MIC)
Method: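 Broth microdilution MIC (Sensititre BOPO7F bovine plate, CLSI methods) of 19 antimicrobials against field isolates of P. multocida, M. haemolytica, H. somni (deep nasopharyngeal swabs) and E. coli, Enterococcus spp. (rectal swabs) from weaned dairy heifers. Incubation 16-24 h at 35 C. MIC is the lowest concentration preventing visible growth. Values with <= or > lie at the tested range limits. Trimethoprim-sulfamethoxazole is given as the trimethoprim component of a 1:19 mixture.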

COc1cc(NS(=O)(=O)c2ccc(N)cc2)nc(OC)n1 [sulfadimethoxine]
Conditions	minimum inhibitory concentration [µg/mL]
isolate (source animal id): 3	≤ 256
isolate (source animal id): 4	≤ 256
isolate (source animal id): 7	≤ 256
isolate (source animal id): 14	≤ 256
isolate (source animal id): 15	≤ 256
isolate (source animal id): 17	≤ 256
isolate (source animal id): 18	≤ 256
isolate (source animal id): 20	≤ 256
isolate (source animal id): 23	> 256
isolate (source animal id): 45	> 256
isolate (source animal id): 53	> 256
isolate (source animal id): 83	≤ 256
isolate (source animal id): 88	≤ 256
isolate (source animal id): 92	≤ 256
isolate (source animal id): 93	≤ 256
isolate (source animal id): 99	≤ 256
isolate (source animal id): 100	≤ 256
isolate (source animal id): 105	≤ 256
isolate (source animal id): 107	≤ 256
isolate (source animal id): 108	≤ 256
isolate (source animal id): 109	≤ 256
isolate (source animal id): 110	≤ 256
isolate (source animal id): 117	≤ 256
isolate (source animal id): 121	≤ 256
isolate (source animal id): 123	≤ 256
isolate (source animal id): 124	≤ 256
isolate (source animal id): 127	≤ 256
isolate (source animal id): 128	≤ 256
isolate (source animal id): 130	≤ 256
isolate (source animal id): 132	≤ 256
isolate (source animal id): 135	≤ 256
isolate (source animal id): 140	≤ 256
isolate (source animal id): 141	≤ 256
isolate (source animal id): 142	≤ 256
isolate (source animal id): 144	≤ 256
isolate (source animal id): 146	≤ 256
isolate (source animal id): 147	≤ 256
isolate (source animal id): 151	≤ 256
isolate (source animal id): 153	≤ 256
isolate (source animal id): 154	≤ 256
isolate (source animal id): 156	≤ 256
isolate (source animal id): 157	≤ 256
isolate (source animal id): 176	> 256
isolate (source animal id): 183	> 256
isolate (source animal id): 186	> 256
isolate (source animal id): 196	> 256
isolate (source animal id): 198	> 256
isolate (source animal id): 200	> 256
isolate (source animal id): 206	> 256
isolate (source animal id): 208	> 256
isolate (source animal id): 210	> 256
isolate (source animal id): 212	≤ 256
isolate (source animal id): 215	> 256
isolate (source animal id): 216	> 256
isolate (source animal id): 218	≤ 256
isolate (source animal id): 219	> 256
isolate (source animal id): 224	> 256
isolate (source animal id): 228	> 256
isolate (source animal id): 230	> 256
isolate (source animal id): 233	> 256
isolate (source animal id): 238	> 256
isolate (source animal id): 239	≤ 256
isolate (source animal id): 241	> 256
isolate (source animal id): 242	> 256
isolate (source animal id): 243	≤ 256
isolate (source animal id): 245	> 256
isolate (source animal id): 246	> 256
isolate (source animal id): 247	> 256
isolate (source animal id): 248	≤ 256
isolate (source animal id): 250	> 256
isolate (source animal id): 251	> 256
isolate (source animal id): 252	> 256
isolate (source animal id): 254	> 256
isolate (source animal id): 258	≤ 256
isolate (source animal id): 259	> 256
isolate (source animal id): 262	≤ 256
isolate (source animal id): 264	≤ 256
isolate (source animal id): 265	> 256
isolate (source animal id): 266	> 256
isolate (source animal id): 267	> 256
isolate (source animal id): 269	≤ 256
isolate (source animal id): 271	> 256
isolate (source animal id): 272	> 256
isolate (source animal id): 274	≤ 256
isolate (source animal id): 276	≤ 256
isolate (source animal id): 278	> 256
isolate (source animal id): 280	> 256
isolate (source animal id): 281	> 256
isolate (source animal id): 283	≤ 256
isolate (source animal id): 288	≤ 256
isolate (source animal id): 291	≤ 256
isolate (source animal id): 292	> 256
isolate (source animal id): 296	≤ 256
isolate (source animal id): 306	> 256
isolate (source animal id): 336	≤ 256
isolate (source animal id): 337	≤ 256
isolate (source animal id): 341	≤ 256

COc1cc(Cc2cnc(N)nc2N)cc(OC)c1OC.Cc1cc(NS(=O)(=O)c2ccc(N)cc2)no1 [trimethoprim-sulfamethoxazole]
Conditions	minimum inhibitory concentration [µg/mL]
isolate (source animal id): 3	≤ 2
isolate (source animal id): 4	> 2
isolate (source animal id): 7	> 2
isolate (source animal id): 14	> 2
isolate (source animal id): 15	≤ 2
isolate (source animal id): 17	> 2
isolate (source animal id): 18	≤ 2
isolate (source animal id): 20	> 2
isolate (source animal id): 23	≤ 2
isolate (source animal id): 45	> 2
isolate (source animal id): 53	> 2
isolate (source animal id): 83	≤ 2
isolate (source animal id): 88	> 2
isolate (source animal id): 92	≤ 2
isolate (source animal id): 93	≤ 2
isolate (source animal id): 99	≤ 2
isolate (source animal id): 100	≤ 2
isolate (source animal id): 105	≤ 2
isolate (source animal id): 107	≤ 2
isolate (source animal id): 108	≤ 2
isolate (source animal id): 109	≤ 2
isolate (source animal id): 110	≤ 2
isolate (source animal id): 117	> 2
isolate (source animal id): 121	> 2
isolate (source animal id): 123	≤ 2
isolate (source animal id): 124	≤ 2
isolate (source animal id): 127	≤ 2
isolate (source animal id): 128	> 2
isolate (source animal id): 130	≤ 2
isolate (source animal id): 132	> 2
isolate (source animal id): 135	> 2
isolate (source animal id): 140	> 2
isolate (source animal id): 141	≤ 2
isolate (source animal id): 142	≤ 2
isolate (source animal id): 144	≤ 2
isolate (source animal id): 146	≤ 2
isolate (source animal id): 147	≤ 2
isolate (source animal id): 151	> 2
isolate (source animal id): 153	≤ 2
isolate (source animal id): 154	≤ 2
isolate (source animal id): 156	≤ 2
isolate (source animal id): 157	≤ 2
isolate (source animal id): 176	≤ 2
isolate (source animal id): 183	≤ 2
isolate (source animal id): 186	≤ 2
isolate (source animal id): 196	≤ 2
isolate (source animal id): 198	≤ 2
isolate (source animal id): 200	≤ 2
isolate (source animal id): 206	≤ 2
isolate (source animal id): 208	≤ 2
isolate (source animal id): 210	≤ 2
isolate (source animal id): 212	≤ 2
isolate (source animal id): 215	≤ 2
isolate (source animal id): 216	≤ 2
isolate (source animal id): 218	≤ 2
isolate (source animal id): 219	≤ 2
isolate (source animal id): 224	≤ 2
isolate (source animal id): 228	≤ 2
isolate (source animal id): 230	≤ 2
isolate (source animal id): 233	> 2
isolate (source animal id): 238	> 2
isolate (source animal id): 239	> 2
isolate (source animal id): 241	≤ 2
isolate (source animal id): 242	≤ 2
isolate (source animal id): 243	≤ 2
isolate (source animal id): 245	> 2
isolate (source animal id): 246	≤ 2
isolate (source animal id): 247	≤ 2
isolate (source animal id): 248	≤ 2
isolate (source animal id): 250	≤ 2
isolate (source animal id): 251	≤ 2
isolate (source animal id): 252	≤ 2
isolate (source animal id): 254	≤ 2
isolate (source animal id): 258	≤ 2
isolate (source animal id): 259	≤ 2
isolate (source animal id): 262	≤ 2
isolate (source animal id): 264	≤ 2
isolate (source animal id): 265	> 2
isolate (source animal id): 266	≤ 2
isolate (source animal id): 267	≤ 2
isolate (source animal id): 269	≤ 2
isolate (source animal id): 271	≤ 2
isolate (source animal id): 272	> 2
isolate (source animal id): 274	≤ 2
isolate (source animal id): 276	≤ 2
isolate (source animal id): 278	≤ 2
isolate (source animal id): 280	> 2
isolate (source animal id): 281	≤ 2
isolate (source animal id): 283	≤ 2
isolate (source animal id): 288	≤ 2
isolate (source animal id): 291	> 2
isolate (source animal id): 292	≤ 2
isolate (source animal id): 296	≤ 2
isolate (source animal id): 306	≤ 2
isolate (source animal id): 336	≤ 2
isolate (source animal id): 337	≤ 2
isolate (source animal id): 341	≤ 2

From the supplement of paper PMC8612539
